In patent US11584712B2, “Alkylamine-substituted perthiocarbamates as dual precursors to hydropersulfide and carbonyl sulfide” (The Johns Hopkins University, priority 2020, dated 2023):
Where “and” joins values, the source holds several entries; their conditions need not be identical. Equal entries are not always repeated. Entries after “also recorded” stand apart in the source; their conditions may differ.

Tests used:
[1] = Kinetics of decomposition of 7a and formation of 2a and 9 by UPLC-MS; assay type: physicochemical; conditions: 7a 20 μM, HPE-IAM 1 mM, ammonium bicarbonate buffer 50 mM with DTPA
Procedure: An aliquot of the reaction mixture was withdrawn at the specified time and quenched with 1% formic acid. The curves are the calculated best fits to a single-exponential function. The pseudo-first order rate constants for 7a, 9 and 2a are 0.59±0.02, 0.57±002, and 0.58±0.03 min^−1, respectively;

[2] = RSSH generation in the presence of glutathione by UPLC-MS; assay type: physicochemical
Procedure: The reaction mixture was quenched with 1% formic acid and analyzed by UPLC-MS. Under these conditions, 42±1 μM of 2b formation is observed. RSSH-derived symmetrical dialkyl polysulfide labeled as S3 and S4 (R^1SSnSR^1, n=1-2), and unsymmetrical dialkyl polysulfide labeled as ′S2 to ′S4 (R^1SSnSR^3, n=0-2) formation are observed. 4-Hydroxyphenyl acetamide, labeled as asterisk, is used as internal standard in these experiments;

H9c2 cells [3] = experiment: Cytotoxicity study with SYTOX Green nucleic acid stain; assay type: cell-based, rat; conditions: 24 h exposure, 0-150 μM
Procedure: H9c2(2-1) embryonic rat heart myoblasts were obtained from the American Type Culture Collection. Cells were grown in Dulbecco's […] (DMEM), supplemented with fetal bovine serum (FBS) 10%, penicillin 100 U/mL and streptomycin 100 μg/mL. They were propagated in T75-flasks, split before reaching 70-80% confluence (usually every day or every second day), and used within 11 passages. Cells were passaged to tissue culture treated 96-well microtiter plates at the specified density in 180 μL volumes and incubated for 24 h.
Cells were seeded at a density of 1×10^4 cells/well. […] Then, 100 μL of media containing 3 μM SYTOX™ Green nucleic acid stain (Invitrogen) was added and the cells were incubated for 2 h before fluorescence readings were obtained at 485Ex/538Em (Step 1). Finally, an additional 100 μL of media containing 3 μM SYTOX™ and 0.2% Triton X-100 was added in order to permeabilize all cells and incubated for 1 h before fluorescence values measured (Step 2). The relative % cells surviving was calculated as a 100% minus the ratio of the fluorescence value of Step 1 over Step 2 (% cells surviving=100%−(FL538 (Step 1)/FL538(Step 2)).
Cells were seeded at a density of 1×10^4 cells/well. […] The relative % cells surviving was calculated as a 100% minus the ratio of the fluorescence value of Step 1 over Step 2 (% cells surviving=100%−(FL538 (Step 1)/FL538(Step 2)).

H9c2 cells [4] = experiment: H9c2 cell protection from H2O2-mediated oxidative stress, Cell Counting Kit-8 (CCK-8); assay type: cell-based, rat; conditions: 2 h pretreatment (7b 50, 100, 150 μM; byproduct 150 μM), then H2O2 200 μM 2 h
Procedure: Cells were seeded at a density of 5×10^3 cells/well. After 24 h, precursor 7b or byproduct 2b was added at 20 μL volumes using DMSO:H2O (<0.01% DMSO as the vehicle). Cells were incubated for 2 h before media was removed and the cells gently washed with PBS (pH 7.4). Then, 180 μL of fresh media and 20 μL H2O2 diluted into H2O were added and cells were incubated for an additional 2 h. At the completion of H2O2 exposure, each well is carefully washed 3 times with PBS (pH 7.4) before adding 100 μL of media, without-FBS, containing 10% v/v CCK-8 (Dojindo) and incubated for 3 h prior to obtaining absorbance values at 450 nm. The relative % viability was calculated as 100 times the ratio of the Abs450 (pretreated, H2O2-exposed) over Abs450 (vehicle-treated, non H2O2-exposed).

H9c2 cells [5] = experiment: H9c2 cell protection from H2O2-mediated oxidative stress, SYTOX Green nucleic acid stain; assay type: cell-based, rat; conditions: 2 h pretreatment (150 μM for 8), then H2O2 200 μM
Procedure: Cells were seeded at a density of 1×10^4 cells/well. After 24 h, precursor 7b or byproduct 2b is added in 20 μL volumes using DMSO: H2O (<0.01% DMSO). Cells were incubated for 2 h before media was removed and the cells gently washed with PBS (pH 7.4). Then, 180 μL of fresh media and 20 μL H2O2 diluted in H2O were added before cells were incubated for an additional 1 h. After removing this media, 100 μL of media containing 3 μM SYTOX™ Green nucleic acid stain was added, and the cells incubated for 2 h before fluorescence readings were obtained at 485Ex/538Em (Step 1). Finally, an additional 100 μL of media containing 3 μM SYTOX™ and 0.2% Triton X-100 was added in order to permeabilize all cells and incubated for 1 h before fluorescence values measured (Step 2). The relative % cells surviving was calculated as a 100% minus the ratio of the fluorescence value of Step 1 over Step 2 (% cells surviving=100%−(FL538 (Step 1)/FL538 (Step 2)). Fluorescence values for vehicle-treated, non-H2O2-exposed wells were treated as background cell death and this value is added to the % cell survival for each subsequent group.
See Hofgaard et al., 2006, for general procedures. […] After removing this media, 100 μL of media containing 3 μM SYTOX® Green nucleic acid stain was added, and the cells incubated for 2 h before fluorescence readings were obtained at 485Ex/538Em (Step 1). […]

Compound: CNCCN(C)C(=O)SSC(C)(C)C(NC(C)=O)C(=O)OC (centres unmarked) [Precursor 7a, 2-(((3-acetamido-4-methoxy-2-methyl-4-oxobutan-2-yl)disulfannecarbonyl)(methyl)amino)-N-methylethan-1-aminium]
- pseudo-first order rate constant of RSS-HPE-AM 9 formation [1]: 0.58 ± 0.02 min⁻¹ and 0.57 ± 002 min⁻¹
- pseudo-first order rate constant of byproduct 2a formation [1]: 0.57 ± 0.02 min⁻¹ and 0.58 ± 0.03 min⁻¹
- pseudo-first order rate constant of precursor decomposition [1]: 0.59 ± 0.02 min⁻¹

Compound: COC(=O)C(NC(C)=O)C(C)(C)SSC(=O)N(C)CCN (centres unmarked) [Precursor 7b, 2-(((3-acetamido-4-methoxy-2-methyl-4-oxobutan-2-yl)disulfannecarbonyl)(methyl)amino)ethan-1-aminium]
- byproduct 2b formation ([2]; 7b 100 μM, glutathione 500 μM, pH 7.4 ammonium bicarbonate 50 mM with DTPA, 37° C., 45 min): 42 ± 1 µM
- yield of byproduct 2b ([2]; in the presence of GSH, pH 7.4): 42%
- cytotoxicity toward H9c2 cells (H9c2 cells [3]): no toxicity; also recorded: not cytotoxic
- protection against H2O2-mediated toxicity (CCK-8 viability) (H9c2 cells [4]): dose-dependent attenuation
- protection against H2O2-mediated toxicity (SYTOX) (H9c2 cells [5]): protective effects
